In US6313090A, “Methods for treating parasitic infection using thiopeptides” (The United States of America as represented by the …, priority 2000, dated 2001):
Where two headings read alike, the source gives them in different places.

System: C. parvum GCH1 oocysts
Experiment: Intact C. parvum oocyst assay on MDBKF5D2 cell monolayers, immunofluorescence
Type: cell-based
Conditions: for inhibition at 800 µg/mL / inhibition at 100 µg/mL / inhibition at 200 µg/mL / inhibition at 400 µg/mL / inhibition at 1 µg/mL / inhibition at 10 µg/mL / inhibition at 0.1 µg/mL: Cryptosporidium parvum
Protocol: In vitro doses of drugs. Thiostrepton (Calbiochem) was dissolved in sterile complete Dulbecco's Modified Eagle Medium (DMEM) supplemented with dimethyl sulfoxide (DMSO) at 0.2% and tested at concentrations of 800, 400, 200, and 100, 10, 1 and 0.1 μg/ml.
(§1) Intact C. parvum oocyst asset 3.0×10^4 C. parvum GCH1 oocysts per well were incubated in the above-mentioned concentrations of drug at 37° C. (8% CO2) on confluent MDBKF5D2 cell monolayers in 96 well microtiter plates. The level of infection in each well was determined and analyzed by immunofluorescence assay at 48 hours, using C. parvum sporozoite rabbit anti-serum (0.1%) and fluorescein-conjugated goat anti-rabbit antibody (1.0%). Percent inhibition was calculated by subtracting the mean parasite/drug from the mean parasitelmedium, divided by the mean parasite/medium, all of which was multiplied by 100. The analysis was performed using MCID and an inverted microscope.
In vitro doses of drugs. Thiostrepton (Calbiochem) and Phavic (NTZ) were dissolved in sterile complete Dulbecco's Modified Eagle Medium (DMEM) supplemented with dimethyl sulfoxide (DMSO) at 0.2% and tested at concentrations of 800, 400, 200, and 100 μg/ml. NTZ was tested at concentrations of 100, 10, 1 and 0.1 μg/ml. Paromomycin (Sigma) was dissolved in DMEM and tested at concentrations of 2000, 1000, 500 and 250 μg/ml.
as §1, with “assay .” for “asset”, “plates. For some monolayers, the oocysts were incubated in DMEM on the cell monolayers for four hours, at which time the monolayers were washed and then drug was added to the wells.” for “plates.”, “parasite/medium,” for “parasitelmedium,”
In vitro doses of drugs. Thiostrepton (Calbiochem), Phavic (NTZ) were dissolved in sterile complete Dulbecco's Modified Eagle Medium (DMEM) supplemented with dimethyl sulfoxide (DMSO) at 0.2%. Thiostrepton was tested at a concentration of 800 μg/ml. NTZ was tested at a concentration of 10 μg/ml. Paromomycin was dissolved in DMEM and tested at 2000 μg/ml. Cell monolayers were infected and washed, followed by the addition of drug at time intervals of 0, 2, 4, 8 and 24 hours.
as §1, with “assay.” for “asset”, “analyze” for “analyzed”, “parasite/medium,” for “parasitelmedium,”

SMILES: C=C(NC(=O)C(=C)NC(=O)c1csc(C2=N[C@@H]3c4csc(n4)[C@H]4NC(=O)c5csc(n5)[C@H]([C@](C)(O)[C@@H](C)O)NC(=O)[C@H]5CSC(=N5)/C(=C/C)NC(=O)[C@H]([C@@H](C)O)NC(=O)c5csc(n5)[C@]3(CC2)NC(=O)[C@H](C)NC(=O)C(=C)NC(=O)[C@H](C)NC(=O)[C@H]([C@@H](C)CC)N[C@@H]2C=Cc3c([C@H](C)O)cc(nc3[C@H]2O)C(=O)O[C@@H]4C)n1)C(N)=O [Thiostrepton, thiostrepton]
- inhibition at 800 µg/mL (0 h, read-out: Inhibition Percent, Table 5, 800 μg/ml, drug added at 0 hrs): 91.2%
- inhibition at 800 µg/mL (0 h, read-out: Inhibition Score, Table 5, 800 μg/ml, drug added at 0 hrs): 91 to 100%
- inhibition at 800 µg/mL (2 h, read-out: Inhibition Percent, Table 5, 800 μg/ml, drug added at 2 hrs): 91.8%
- inhibition at 800 µg/mL (2 h, read-out: Inhibition Score, Table 5, 800 μg/ml, drug added at 2 hrs): 91 to 100%
- inhibition at 100 µg/mL (4 h, read-out: Inhibition Percent, Table 4 Washed at 4 hours, 100 μg/ml): 61%
- inhibition at 200 µg/mL (4 h, read-out: Inhibition Percent, Table 4 Washed at 4 hours, 200 μg/ml): 78.7%
- inhibition at 400 µg/mL (4 h, read-out: Inhibition Percent, Table 4 Washed at 4 hours, 400 μg/ml): 88.2%
- inhibition at 800 µg/mL (4 h, read-out: Inhibition Percent, Table 4 Washed at 4 hours, 800 μg/ml): 87.4%
- inhibition at 800 µg/mL (4 h, read-out: Inhibition Percent, Table 5, 800 μg/ml, drug added at 4 hrs): 84.5%
- inhibition at 100 µg/mL (4 h, read-out: Inhibition Score, Table 4 Washed at 4 hours, 100 μg/ml): 56 to 70%
- inhibition at 200 µg/mL (4 h, read-out: Inhibition Score, Table 4 Washed at 4 hours, 200 μg/ml): 71 to 90%
- inhibition at 400 µg/mL (4 h, read-out: Inhibition Score, Table 4 Washed at 4 hours, 400 μg/ml): 71 to 90%
- inhibition at 800 µg/mL (4 h, read-out: Inhibition Score, Table 4 Washed at 4 hours, 800 μg/ml): 71 to 90%
- inhibition at 800 µg/mL (4 h, read-out: Inhibition Score, Table 5, 800 μg/ml, drug added at 4 hrs): 71 to 90%
- inhibition at 800 µg/mL (8 h, read-out: Inhibition Percent, Table 5, 800 μg/ml, drug added at 8 hrs): 84.9%
- inhibition at 800 µg/mL (8 h, read-out: Inhibition Score, Table 5, 800 μg/ml, drug added at 8 hrs): 71 to 90%
- inhibition at 800 µg/mL (24 h, read-out: Inhibition Percent, Table 5, 800 μg/ml, drug added at 24 hrs): 75%
- inhibition at 800 µg/mL (24 h, read-out: Inhibition Score, Table 5, 800 μg/ml, drug added at 24 hrs): 71 to 90%
- inhibition at 1 µg/mL (read-out: Inhibition Percent, Table 1, 1 μg/ml): < 0%
- inhibition at 10 µg/mL (read-out: Inhibition Percent, Table 1, 10 μg/ml): 12.4%
- inhibition at 100 µg/mL (read-out: Inhibition Percent, Table 1, 100 μg/ml): 29.4%
- inhibition at 0.1 µg/mL (read-out: Inhibition Percent, Table 1, .1 μg/ml): < 0%
- inhibition at 100 µg/mL (read-out: Inhibition Percent, Table 2, 100 μg/ml): 22.7%
- inhibition at 200 µg/mL (read-out: Inhibition Percent, Table 2, 200 μg/ml): 51.8%
- inhibition at 400 µg/mL (read-out: Inhibition Percent, Table 2, 400 μg/ml): 72.6%
- inhibition at 800 µg/mL (read-out: Inhibition Percent, Table 2, 800 μg/ml): 87.8%
- inhibition at 100 µg/mL (read-out: Inhibition Percent, Table 3 Unwashed, 100 μg/ml): 35.4%
- inhibition at 200 µg/mL (read-out: Inhibition Percent, Table 3 Unwashed, 200 μg/ml): 68.2%
- inhibition at 400 µg/mL (read-out: Inhibition Percent, Table 3 Unwashed, 400 μg/ml): 87.4%
- inhibition at 800 µg/mL (read-out: Inhibition Percent, Table 3 Unwashed, 800 μg/ml): 91.4%
- inhibition at 100 µg/mL (read-out: Inhibition Percent, Table 6, 100 μg/ml): 36.5%
- inhibition at 200 µg/mL (read-out: Inhibition Percent, Table 6, 200 μg/ml): 65.7%
- inhibition at 400 µg/mL (read-out: Inhibition Percent, Table 6, 400 μg/ml): 79%
- inhibition at 800 µg/mL (read-out: Inhibition Percent, Table 6, 800 μg/ml): 83.7%
- inhibition at 1 µg/mL (read-out: Inhibition Score, Table 1, 1 μg/ml): 0 to 30%
- inhibition at 10 µg/mL (read-out: Inhibition Score, Table 1, 10 μg/ml): 0 to 30%
- inhibition at 100 µg/mL (read-out: Inhibition Score, Table 1, 100 μg/ml): 0 to 30%
- inhibition at 0.1 µg/mL (read-out: Inhibition Score, Table 1, .1 μg/ml): 0 to 30%
- inhibition at 100 µg/mL (read-out: Inhibition Score, Table 2, 100 μg/ml): 0 to 30%
- inhibition at 200 µg/mL (read-out: Inhibition Score, Table 2, 200 μg/ml): 31 to 55%
- inhibition at 400 µg/mL (read-out: Inhibition Score, Table 2, 400 μg/ml): 71 to 90%
- inhibition at 800 µg/mL (read-out: Inhibition Score, Table 2, 800 μg/ml): 71 to 90%
- inhibition at 100 µg/mL (read-out: Inhibition Score, Table 3 Unwashed, 100 μg/ml): 31 to 55%
- inhibition at 200 µg/mL (read-out: Inhibition Score, Table 3 Unwashed, 200 μg/ml): 56 to 70%
- inhibition at 400 µg/mL (read-out: Inhibition Score, Table 3 Unwashed, 400 μg/ml): 71 to 90%
- inhibition at 800 µg/mL (read-out: Inhibition Score, Table 3 Unwashed, 800 μg/ml): 91 to 100%
- inhibition at 100 µg/mL (read-out: Inhibition Score, Table 6, 100 μg/ml): 31 to 55%
- inhibition at 200 µg/mL (read-out: Inhibition Score, Table 6, 200 μg/ml): 56 to 70%
- inhibition at 400 µg/mL (read-out: Inhibition Score, Table 6, 400 μg/ml): 71 to 90%
- inhibition at 800 µg/mL (read-out: Inhibition Score, Table 6, 800 μg/ml): 71 to 90%
- Parasite Count (Table 1, 1 μg/ml): 1193.19
- Parasite Count (Table 1, 10 μg/ml): 909.25
- Parasite Count (Table 1, 100 μg/ml): 732.31
- Parasite Count (Table 1, .1 μg/ml): 1052.13
- Parasite Count (Table 2, 100 μg/ml): 943.31
- Parasite Count (Table 2, 200 μg/ml): 587.81
- Parasite Count (Table 2, 400 μg/ml): 334.06
- Parasite Count (Table 2, 800 μg/ml): 149.25
- Parasite Count (Table 3 Unwashed, 100 μg/ml): 795.63
- Parasite Count (Table 3 Unwashed, 200 μg/ml): 391.19
- Parasite Count (Table 3 Unwashed, 400 μg/ml): 154.88
- Parasite Count (Table 3 Unwashed, 800 μg/ml): 106.06
- Parasite Count (Table 4 Washed at 4 hours, 100 μg/ml): 543.88
- Parasite Count (Table 4 Washed at 4 hours, 200 μg/ml): 297.19
- Parasite Count (Table 4 Washed at 4 hours, 400 μg/ml): 164.31
- Parasite Count (Table 4 Washed at 4 hours, 800 μg/ml): 176.31
- Parasite Count (Table 5, 800 μg/ml, drug added at 0 hrs): 112.44
- Parasite Count (Table 5, 800 μg/ml, drug added at 2 hrs): 104.19
- Parasite Count (Table 5, 800 μg/ml, drug added at 4 hrs): 196.81
- Parasite Count (Table 5, 800 μg/ml, drug added at 8 hrs): 192.56
- Parasite Count (Table 5, 800 μg/ml, drug added at 24 hrs): 318.25
- Parasite Count (Table 6, 100 μg/ml): 871.25
- Parasite Count (Table 6, 200 μg/ml): 470.69
- Parasite Count (Table 6, 400 μg/ml): 288.13
- Parasite Count (Table 6, 800 μg/ml): 223.13
- activity against C. parvum in vitro (concentrations of 200 and above, Tables 1 and 2): good activity
- effectiveness compared with PRM (in vitro, summary statement): more effective than PRM at about one-fifth the dose
- activity when drug is added 24 hours after infection (intracellular stages only): still highly inhibitory
